Tested on: critically ill patients with vasodilatory shock
Assay: Prospective observational study: safety (thromboembolic events, serum troponin elevation)
Format: in vivo
Settings: for Elevated serum troponin - %: troponin I level ≥20 ng/L
Procedure: A prospective observational study was conducted to evaluate the efficacy, safety feasibility of using angiotensin II as a primary vasopressor for treatment of critically ill patients with vasodilatory shock.
Study Population: A total of 40 patients receiving angiotensin II were matched to 80 control patients who received conventional vasopressors (norepinephrine, vasopressin, metaraminol, epinephrine, or combinations thereof). […] The mean patient age was 63 years (SD 14 years), two-thirds of patients were male, and the median APACHE III score was 65 (IQR 49 to 80). There were no significant differences between groups in terms of demographics, clinical characteristics, illness severity, baseline vasopressor type and dose, physiological parameters, or biochemistry.
Vasodilatory shock was defined by a mean arterial pressure <65 mmHg in the presence of sufficient volume resuscitation and preserved cardiac output, based on either a cardiac index ≥2.3 L/min/m^2, a central venous oxygen saturation ≥70%, or clinician judgement. Patients were excluded if they had kidney failure (i.e., chronic hemodialysis, peritoneal dialysis or a baseline estimated glomerular filtration rate <15 mL/min/1.73 m^2) or were diagnosed with arterial (acute coronary syndrome, ischemic stroke, or mesenteric ischemia) or venous thrombosis (deep vein thrombosis or pulmonary embolism) within the preceding 6 months. […] The mean patient age was 63 (SD 14) years, two-thirds of patients were male, and the median APACHE III score was 65 (IQR 49 to 80). There were no significant differences between the angiotensin II group and the conventional vasopressor group in terms of demographics, clinical characteristics, illness severity, vasopressor type and use, physiological parameters, or biochemistry.
Intervention: Infusions of angiotensin II were initiated to deliver a dose between 5 and 10 ng/kg/min. The dose was adjusted every 5 minutes according to a protocolized titration scheme to achieve a mean arterial pressure (MAP) of ≥65 mmHg (dose range 1.25 to 40 ng/kg/min). During the adjustment period, infusions of other vasopressor agents were weaned and discontinued where possible. Where the MAP was inadequate despite the maximum dose of angiotensin II, additional vasopressor agents were prescribed at the discretion of the clinician. The use of vasopressin (dose range 0.01 to 0.04 IU/min) was preferred over the use of norepinephrine (dose range 0 to 40 mcg/min). Angiotensin II was continued until resolution of shock, death, or for a maximum of 7 days. If ongoing vasopressor therapy was required after this time, norepinephrine was utilized.
Control: The control arm included critically ill patients with vasodilatory shock who received conventional vasopressors. To address confounding by indication and other sources of bias arising from the use of non-randomized data, a propensity score was estimated for the likelihood of treatment with angiotensin II to match patients in the intervention arm to their nearest neighbor in the control arm using a 1:2 ratio without replacement. Propensity scores were generated based on age, sex, APACHE II score, serum creatinine level, vasopressor type and dose at enrollment, and time from ICU admission and initiation of any vasopressor to initiation of angiotensin II.
Secondary Outcomes: Secondary renal outcomes included new or progressive AKI, creatinine trajectory, the requirement for CRRT, time to CRRT liberation, and the development of a major adverse kidney event at day 7 (MAKE7). New AKI was defined and staged according to the Kidney Disease Improving Global Outcomes (KDIGO) criteria as a rise in serum creatinine of ≥26.5 μmol/L in 48 hours or as a ≥50% increase in serum creatinine from baseline within 7 days. Progressive AKI was defined as an increase in AKI severity by at least one KDIGO stage. MAKE7 was a composite of death, dialysis dependence, and a persistent 50% increase in serum creatinine level. […]

With CC[C@H](C)[C@H](NC(=O)[C@H](Cc1ccc(O)cc1)NC(=O)[C@@H](NC(=O)[C@H](CCCNC(=N)N)NC(=O)[C@@H](N)CC(=O)O)C(C)C)C(=O)N[C@@H](Cc1cnc[nH]1)C(=O)N1CCC[C@H]1C(=O)N[C@@H](Cc1ccccc1)C(=O)O [Angiotensin II, Asp-Arg-Val-Tyr-Ile-His-Pro-Phe] the “Deep vein thrombosis - %” value (in vivo) was “(5) %”, the “Pulmonary embolus - %” value (in vivo) was “(10) %” and the “Deep vein thrombosis - no.” value (number of patients) was 2. For the same molecule, the “Pulmonary embolus - no.” value (number of patients) was 4, the “Elevated serum troponin - %” value was “(8) %” and the “Elevated serum troponin - %” value (listed as angiotensin II) was 8%.

— patent US20240197812A1, “Methods of Treating Cardiac Injury” (Proletariat Therapeutics, Inc., priority 2022, published 2024)
